The values that follow come from PubChem BioAssay AID2384 (Southern Research Specialized Biocontainment Screening …, 2010).

Where “and” joins values, the source holds several entries; their conditions need not be identical. Equal values may be shown once.

The subject of this test is S. typhi GFP reporter counter-screen, fluorescence, 4 h. Put plainly: inhibitors in S. typhi counter-screen strain, dose response, counter-screen for PhoP regulon inhibitor project, fluorescence, 4 h (AID 2384).

For `CN(C)c1ccc(O)c2c1CC1CC3C(N(C)C)C(=O)C(C(N)=O)=C(O)[C@@]3(O)C(=O)C1=C2O` (stereo not given in full), the IC50 is 1.69 µM. To `Cc1ccc(NNS(=O)(=O)c2ccc(C)cc2)cc1` belongs 111 µM. Next, `Cc1ccc(-c2csc(NC(=O)C[n+]3cc(-c4ccc(C)cc4)n4c3CCC4)n2)cc1`: 19.3 µM; `CSc1ccc2c(c1)C(N1CCN(C)CC1)Cc1ccc(F)cc1S2` (stereo not given): 23.9 µM.

Regarding `CC(=O)c1cc(O)c2ccccc2c1O`, the IC50 was 107 µM. To `CCn1ncc(/C=N\NC(=O)c2csc3ccccc23)c1C` belongs 124 µM.

Regarding `CCN(CC)CCn1c(=N)n(CC(O)COc2cccc(C)c2)c2ccccc21` (stereo not given), the IC50 is 23.3 µM. To `O=C(Nc1ccc(-c2nc3ccccc3[nH]2)cc1)c1ccco1` belongs 94 µM; to `O=c1ccc2cc3c([nH]c4ccc(Br)cc43)oc-2c1O`, 18.2 µM; to `CC[C@H]1OC(=O)C[C@@H](O)[C@H](C)[C@@H](O[C@@H]2O[C@H](C)C[C@H](N(C)C)[C@H]2O)[C@@H](CC=O)C[C@@H](C)C(=O)C=C[C@]2(C)O[C@H]2[C@@H]1C`, 3.95 µM. Next, `Cc1ccc(Nc2cc(C)nn2-c2nc(C)cc(=O)[nH]2)cc1`: 11.2 µM; `CS(=O)(=O)c1ccc([C@@H](O)[C@@H](CO)NC(=O)C(Cl)Cl)cc1`: 18 µM.

For the molecule `O=C(C[n+]1cccc(CNC(=O)c2ccc(OC(F)F)cc2)c1)Nc1ccc(SC(F)F)cc1`, the IC50 was 78.6 µM. Next, `O=C(C[n+]1cc(Br)cc2ccccc21)c1ccc(Cl)cc1`: 32.7 µM; `c1cc2c(cc1C1CCCCC1)c1c3n2CCN=C3CCC1`: 37.9 µM. Next, `CC(NCc1ccccc1O)C12CC3CC(CC(C3)C1)C2` (stereo not given): 33.9 µM; `CCOC(=O)N1CCN(C(=O)c2cn(CC)c3cc(N4CCN(C)CC4)c(F)cc3c2=O)CC1`: 20.3 µM; `CNCCCC1c2ccccc2C=Cc2ccccc21`: 67.1 µM. To `CN(O)/C=c1/ccc2c(n1)C(=O)C=CC=2` belongs 19.5 µM. On to `Cc1cccc(Nc2cc(C)c3c(O)cccc3n2)c1C`, for which the IC50 is 34 µM. Next, `O=c1cc(-c2ccccc2)cc(-c2ccccc2)n1O`: 32.3 µM; `CN1CCN(CCCN2c3ccccc3Sc3ccc(C(F)(F)F)cc32)CC1`: 36.6 µM.

In the case of `O=[N+]([O-])c1cc(O)c2ncccc2c1`, the IC50 is 15.9 µM. Next, `Oc1ccc(CN2CCN(Cc3ccccc3)CC2)c2cccnc12`: 25.7 µM; `CC1(CC(=O)N/N=C/c2cc([N+](=O)[O-])c(O)cc2O)OCCO1`: 74 µM.

Regarding `COc1ccc(C(=O)NC(=S)NNC(=O)c2cnccn2)cc1`, the IC50 was 47.1 µM.

For `CN1CCN(c2nc3cc(C(F)(F)F)ccc3n3cccc23)CC1`, the IC50 was 42.4 µM. To `COc1ccc(NC2=NC3(CCCCC3)N=C(N)N2)cc1` belongs 138 µM. Next, `O=C(N/N=C/c1ccc([N+](=O)[O-])o1)C1CCCC1`: 37 µM; `CCOc1cccc(CNCCc2c(C)[nH]c3ccc(OC(F)(F)F)cc23)c1O`: 31.2 µM; `CN(C)CC/C=C1\c2ccc(F)cc2Sc2cc(F)c(Cl)cc21`: 19.5 µM.

Consider `O=C(Oc1c(Cl)cc(Cl)c2cccnc12)c1cccc([N+](=O)[O-])c1`, for which the IC50 was 9.26 µM. As for `CC(C(=O)NC1C=CS(=O)(=O)C1)N1C(=O)/C(=C/c2ccc(Cl)cc2)SC1=S` (stereo not given), the IC50 is 30.3 µM. Next, `NC(=NCCCCCCN=C(N)/N=C(\N)Nc1ccc(Cl)cc1)/N=C(\N)Nc1ccc(Cl)cc1`: 5.2 µM and 5.4 µM and 5.13 µM.

With `Nc1cccc2nc3ccccc3cc12`, the IC50 is 68.7 µM. Regarding `Cc1ccc(OCC(=O)N/N=C/c2ccc([N+](=O)[O-])o2)cc1`, the IC50 is 28.1 µM.

As for `Cc1ccc(NC(=O)c2ccc([N+](=O)[O-])o2)c(C)c1`, the IC50 is 67.9 µM.

`OCCNc1nc(Nc2ccc(Br)cc2)nc2ccccc12`: the IC50 was 15.9 µM. As to `COc1ccc(Nc2c3ccccc3nc3ccccc23)cc1`, the concentration for half-maximal inhibition (IC50) was 23.7 µM. To `Cc1ccc(C(C[N+](=O)[O-])Sc2ccc(N)cc2)cc1` (stereo not given) belongs 26.7 µM.
